Assay results: US20250057848A1, “GAL475 COMPOSITIONS AND METHODS OF USE THEREOF” (NEURIM PHARMACEUTICALS (1991) LTD., priority 2023, published 2025)

Experiments:
[1] = 28 day repeated oral dose with 14-day recovery in Beagle dogs (body weight gain, food consumption); assay type: in vivo, Beagle dog; conditions: for decrease in food consumption / decrease in body weight gain: 7.5, 15, or 30 mg/kg/day oral; for decrease in food consumption: dosing phase; for decrease in body weight gain: dosing phase up to 28 days
Experimental: Thirty-two (16/sex) dogs were randomly assigned to 4 groups and orally administered vehicle (2% (w/v) CMC-Na, 1% (v/v) Tween 80 in 0.1 M phosphate buffer at pH 7.4) or Gal-475*2HCl at 7.5, 15, or 30 mg/kg/day once daily for up to 28 days.

5-HT2B(h) = 5-HT2B(h) (Homo sapiens (Human), UniProt P41595); assay: Receptor binding assay, % inhibition of radioligand binding, 5-HT2B(h); conditions: 30 micromolar GAL475; agonist radioligand; read-out: % inhibition of the binding of radioactively labelled ligand
Chain of 5-HT2B(h) (P41595 whole entry, the tested form may be a part): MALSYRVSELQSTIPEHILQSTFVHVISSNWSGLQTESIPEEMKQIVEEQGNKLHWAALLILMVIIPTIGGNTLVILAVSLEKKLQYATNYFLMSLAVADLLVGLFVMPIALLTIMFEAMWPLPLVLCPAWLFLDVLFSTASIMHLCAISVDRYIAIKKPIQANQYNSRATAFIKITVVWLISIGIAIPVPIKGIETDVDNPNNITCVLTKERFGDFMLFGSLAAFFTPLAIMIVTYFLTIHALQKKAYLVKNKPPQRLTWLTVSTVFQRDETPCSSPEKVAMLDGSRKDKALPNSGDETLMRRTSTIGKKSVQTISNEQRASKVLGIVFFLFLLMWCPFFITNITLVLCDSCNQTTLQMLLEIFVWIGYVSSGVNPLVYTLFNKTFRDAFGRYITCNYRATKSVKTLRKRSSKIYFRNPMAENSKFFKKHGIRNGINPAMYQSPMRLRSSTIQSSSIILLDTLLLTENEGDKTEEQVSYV
Experimental: (§1) GAL475 (30 micromolar) was tested in multiple receptor binding assays. The binding was calculated as a % inhibition of the binding of a radioactively labelled ligand specific for each target.
(§2) However, the potency of GAL 475 at these receptors was lower than 1 micromolar and therefore not considered to be pharmacologically interesting. […] GAL475 was subsequently tested for PAM activity at the human NTS1 (FAST-0330I) and NTS2 (FAST-0331I) receptors, at 100-50,000 nanomolar concentrations. Agonist activity of GAL475 is expressed as a percentage of the activity of the reference agonist (Neurotensin) at its EC100 (maximal response) concentration. Antagonist activity of GAL475 is expressed as a percentage of the inhibition of reference agonist activity at its EC80 […] concentration. The assays were conducted with recombinant cell lines.

[2] = Phase 1 single escalating oral dose study in healthy male volunteers (body weight, tolerability); assay type: in vivo, human
Experimental: The effects of an oral dose of GAL-475 (capsules of 450 mg) in 12 healthy male volunteers was tested in a Phase 1, randomized, placebo-controlled, double-blind, first in man single escalating dose study.
The study drug (GAL475) at 50, 150, 450 mg dosages, or placebo were administered on the morning of Day 1. Subjects fasted for 8 hours prior to the intake of study drug or placebo and for at least 4 hours following dosing.
The subject's body weight was measured on day −1 and at the follow up visit (day 7) using a validated balance. Body weight was recorded with 1 decimal.

5-HT7 (h) = 5-HT7 (h) (Homo sapiens (Human), UniProt P34969); assay: Receptor binding assay, % inhibition of radioligand binding, 5-HT7 (h); conditions: 30 micromolar GAL475; agonist radioligand; read-out: % inhibition of the binding of radioactively labelled ligand
Chain of 5-HT7 (h) (P34969 whole entry, the tested form may be a part): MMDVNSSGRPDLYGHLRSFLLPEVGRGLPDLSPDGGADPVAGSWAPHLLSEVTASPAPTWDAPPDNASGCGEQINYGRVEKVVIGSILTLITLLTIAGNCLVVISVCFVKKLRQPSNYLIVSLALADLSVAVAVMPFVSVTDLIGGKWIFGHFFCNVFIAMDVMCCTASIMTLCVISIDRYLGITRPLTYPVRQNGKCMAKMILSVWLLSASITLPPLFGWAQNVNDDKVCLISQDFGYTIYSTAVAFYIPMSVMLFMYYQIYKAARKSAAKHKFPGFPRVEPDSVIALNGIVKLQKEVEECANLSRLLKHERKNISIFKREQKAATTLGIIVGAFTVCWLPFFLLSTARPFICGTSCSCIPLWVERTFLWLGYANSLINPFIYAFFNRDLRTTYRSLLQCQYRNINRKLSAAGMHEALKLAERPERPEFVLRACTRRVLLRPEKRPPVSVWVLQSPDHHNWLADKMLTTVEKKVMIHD
Experimental: as §1, §2

[3] = Acute gastric emptying (charcoal slurry) in rats; assay type: in vivo, Sprague-Dawley rat; conditions: 3 mg/kg IV
Experimental: Naive male Sprague-Dawley rats (239-297 g) were used to evaluate the effect on gastric emptying of a single dose of 3 mg/kg GAL-475 IV.
Rats were fasted 16-18 hours prior to the start of the experiment and then were given a bolus dose of either vehicle (1% tween-80 2% CMC) or GAL475 (3 mg/kg, IV) via the lateral tail vein. 5 minutes after dosing, rats were gavaged with a charcoal slurry (5 ml/kg, 10% charcoal in 2.5% Arabic gum from acacia tree) and then returned to their cages. 20 minutes after receiving the slurry, rats were euthanized using CO2. The stomachs were excised, weighed, emptied, washed and reweighed. Gastric content was calculated as the difference between full and empty weights. Increased gastric content was interpreted as a decrease in gastric emptying food retention).

[4] = test system: al adrenoreceptor (non-selective); assay: Receptor binding assay, % inhibition of radioligand binding, al adrenoreceptor (non-selective); conditions: 30 micromolar GAL475; antagonist radioligand
Experimental: as §1, §2

human NTS1 = human NTS1 (Homo sapiens (Human), UniProt P30989); assay: Positive allosteric modulator (PAM) activity at human NTS1 (FAST-0330I), recombinant CHO-K1-mt aequorin cells; assay type: cell-based; conditions: 100-50,000 nM
Chain of human NTS1 (P30989 whole entry): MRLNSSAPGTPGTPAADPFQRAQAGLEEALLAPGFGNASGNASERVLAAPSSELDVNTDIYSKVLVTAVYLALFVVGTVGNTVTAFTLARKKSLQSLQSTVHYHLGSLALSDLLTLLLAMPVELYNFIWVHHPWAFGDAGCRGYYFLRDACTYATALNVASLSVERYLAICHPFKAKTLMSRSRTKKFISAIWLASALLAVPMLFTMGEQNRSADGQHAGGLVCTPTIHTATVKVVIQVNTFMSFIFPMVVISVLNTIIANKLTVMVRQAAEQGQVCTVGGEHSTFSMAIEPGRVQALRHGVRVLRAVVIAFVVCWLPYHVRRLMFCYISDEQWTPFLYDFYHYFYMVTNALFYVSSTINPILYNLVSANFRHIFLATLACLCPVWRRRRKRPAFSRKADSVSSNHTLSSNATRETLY
From the text: as §2
(§3) GAL475 (100-50,000 nM) was tested for positive allosteric modulator (PAM) activity at the human NTS1 (FAST-0330I) and NTS2 (FAST-0331I) receptors (Tables 2 and 3).

5-HT5a(h) = 5-HT5a(h) (Homo sapiens (Human), UniProt P47898); assay: Receptor binding assay, % inhibition of radioligand binding, 5-HT5a(h); conditions: 30 micromolar GAL475; agonist radioligand; read-out: % inhibition of the binding of radioactively labelled ligand
Chain of 5-HT5a(h) (P47898 whole entry, the tested form may be a part): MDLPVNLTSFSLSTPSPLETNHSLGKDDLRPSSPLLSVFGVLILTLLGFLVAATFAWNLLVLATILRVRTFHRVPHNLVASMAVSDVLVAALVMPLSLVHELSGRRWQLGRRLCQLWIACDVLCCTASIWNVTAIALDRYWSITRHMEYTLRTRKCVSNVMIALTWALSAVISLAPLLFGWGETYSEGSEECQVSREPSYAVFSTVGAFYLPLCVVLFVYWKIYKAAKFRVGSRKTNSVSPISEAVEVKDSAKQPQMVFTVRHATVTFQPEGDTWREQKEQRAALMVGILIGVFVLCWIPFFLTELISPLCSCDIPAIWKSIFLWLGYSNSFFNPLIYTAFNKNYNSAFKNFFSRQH
Experimental: as §1, §2

human NTS2 = human NTS2 (Homo sapiens (Human), UniProt O95665); assay: Positive allosteric modulator (PAM) activity at human NTS2 (FAST-0331I), recombinant CHO-K1-mt aequorin cells; assay type: cell-based; conditions: 100-50,000 nM
Chain of human NTS2 (O95665 whole entry): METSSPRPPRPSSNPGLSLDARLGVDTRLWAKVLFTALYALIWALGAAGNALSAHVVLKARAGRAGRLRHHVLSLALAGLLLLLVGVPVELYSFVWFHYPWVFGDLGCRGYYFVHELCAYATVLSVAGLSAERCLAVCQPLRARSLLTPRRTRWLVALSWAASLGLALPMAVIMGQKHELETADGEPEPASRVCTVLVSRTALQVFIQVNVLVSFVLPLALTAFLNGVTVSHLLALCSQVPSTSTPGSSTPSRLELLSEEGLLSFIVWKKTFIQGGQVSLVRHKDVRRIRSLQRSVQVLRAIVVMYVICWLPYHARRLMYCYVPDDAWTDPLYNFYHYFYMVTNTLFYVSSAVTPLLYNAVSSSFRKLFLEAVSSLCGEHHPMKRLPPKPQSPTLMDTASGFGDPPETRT
From the text: as §2, §3

[5] = 28 days repeated oral dose with 14-days recovery in rats (body weight, food consumption, tolerability); assay type: in vivo, rat; conditions: for overall body weight gain Day −1 to Day 28 compared to that of the controls: 80 mg/kg/day oral; for group mean body weight compared to the controls: >40 mg/kg/day oral, end of dosing phase (28 days)
Experimental: One hundred and forty-two (71/sex) rats were randomly assigned to 4 groups and given vehicle [2% (w/v) CMC-Na, 1% (v/v) Tween 80 in 0.1 M phosphate buffer at pH 7.4±0.2] or Gal-475*2HCl at 20, 40 or 80 mg/kg/day once daily for 28 days by the oral gavage route.

Na+channel (site 2) = assay: Receptor binding assay, % inhibition of radioligand binding, Na+channel (site 2); conditions: 30 micromolar GAL475; antagonist radioligand
Experimental: as §1, §2

[6] = 450 mg single oral dose, day −1 to day 7
[7] = oral gavage once daily 28 days, 20, 40, or 80 mg/kg/day

CCCNc1nc(NC)nc2c(NCC(C)(C)O)nc(NC)nc12.Cl.Cl [Gal-475*2HCl, 1-(2,6-Bis-methylamino-8-propylamino-pyrimido[5,4-d]pyrimidin-4-ylamino)-2-methyl-propan-2-ol bis hydrochloride]
decrease in food consumption ([1]; females): ≤ 98%
decrease in body weight gain ([1]; females): ≤ 29.9%
decrease in food consumption ([1]; males): up to 81%
decrease in body weight gain ([1]; males): up to 22.7%
body weight gain and food consumption during the recovery phase ([1]; recovery phase): comparable with the control

CCCNc1nc(NC)nc2c(NCC(C)(C)O)nc(NC)nc12 [GAL475, 1-(2,6-Bis-methylamino-8-propylamino-pyrimido[5,4-d]pyrimidin-4-ylamino)-2-methyl-propan-2-ol]
decrease in body weight compared to vehicle ([1]; 28 days): 25%
food consumption compared to vehicle ([1]; 28 days): dramatic decrease
inhibition at 30 µM (5-HT2B(h)): 75%
subjects with mild headaches on the day of capsule intake ([2]; 50 mg single oral dose): 2 of the 6
subjects with mild headaches on the day of capsule intake ([2]; 150 mg single oral dose): 0 of the 6
subjects with mild headaches on the day of capsule intake ([2]; 450 mg single oral dose): 5 of the 6
change in body weight, average [2, 6]: -0.6 kg
change in body weight, range [2, 6]: −0.1 to −1.6 kg
tolerability ([2]; single oral dose 50, 150, 450 mg): well tolerated except for mild headaches
inhibition at 30 µM (5-HT7 (h)): 79%
gastric emptying compared to vehicle ([3]; p<0.05): significantly decreased
gastric content retention higher compared to vehicle controls ([3]; up to 25 minutes after administration): up to 105%
% inhibition of the binding of radioactively labelled ligand [4]: 67.1%
Hill Coefficient (human NTS1): 11.62
% Activation Average at maximal concentration (human NTS1; CHO-K1-mt aequorin): 26.48%
EC50 (human NTS1; CHO-K1-mt aequorin): 0.355 µM
inhibition at 30 µM (5-HT5a(h)): 50.6%
% Activation Average at maximal concentration (human NTS2): 0.21%
weight loss compared to vehicle ([5]; 40 mg/Kg body weight per day, 28 days): meaningful weight loss
body weight gain during recovery phase compared to controls ([5]; 80 mg/kg/day, 2 weeks recovery phase): comparable or greater body weight gain
group mean food consumption compared with control group ([5]; both sexes, >40 mg/kg/day, dosing phase): significant reduced
food intake at the end of recovery phase ([5]; end of recovery phase): reversed
overall body weight gain Day −1 to Day 28 compared to that of the controls ([5]; females): 79%
group mean body weight compared to the controls ([5]; females): −4.70%
overall body weight gain Day −1 to Day 28 compared to that of the controls ([5]; males): 71%
group mean body weight compared to the controls ([5]; males): −7.35%
test article-related adverse effects in clinical signs, food consumption, clinical pathology, or pathology [5, 7]: no test article-related adverse effects
tolerability [5, 7]: well tolerated
% inhibition of the binding of radioactively labelled ligand (Na+channel (site 2)): 75.1%
